Values joined by “and” are separate entries in the source; they are usually repeats but may differ in a detail not shown here. Equal values may be shown once. Read-outs that look alike come from different tables or passages of the source.
Target: T1, PfCRT^Dd2 (Plasmodium falciparum, UniProt Q8IBZ9, A220S/I356T/K76T/M74I/N326S/N75E/Q271E/R371I)
T1 sequence (Q8IBZ9 1-424 M74I/N75E/K76T/A220S/Q271E/N326S/I356T/R371I): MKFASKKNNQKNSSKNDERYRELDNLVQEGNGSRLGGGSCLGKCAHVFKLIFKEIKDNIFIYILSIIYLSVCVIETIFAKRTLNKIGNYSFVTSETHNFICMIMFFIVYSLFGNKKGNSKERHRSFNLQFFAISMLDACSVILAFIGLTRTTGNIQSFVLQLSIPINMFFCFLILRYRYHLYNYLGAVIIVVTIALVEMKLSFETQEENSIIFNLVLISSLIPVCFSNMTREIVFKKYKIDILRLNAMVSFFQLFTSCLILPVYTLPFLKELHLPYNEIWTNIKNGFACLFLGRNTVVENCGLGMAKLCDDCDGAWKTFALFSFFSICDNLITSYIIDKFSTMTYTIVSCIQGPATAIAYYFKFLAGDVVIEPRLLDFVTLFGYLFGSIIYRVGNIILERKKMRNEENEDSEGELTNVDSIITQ
Assay: Competition kinetics of drug transport (radiolabeled substrate plus cold inhibitor), PfCRT^Dd2-expressing oocytes
Assay type: cell-based
Parameters: expressed in transfected cells; host or cells: Xenopus laevis oocytes injected with in vitro transcribed RNA (pSP64T)
Conditions: for PfCRTDd2-mediated CQ transport 500 µM CQ: single replicates; for Vmax, maximal velocity of drug transport: global fit; for β, partiality factor: factor on transport of the labeled drug by the other drug
Procedure: The experimental procedure and the data analysis were as described above.
The difference between the two models lies in the value of α, a parameter describing how much the affinity for the substrate changes when the inhibitor is already bound, and vice versa. […] The resulting Vmax,app values and the Vmax,app/KM,app ratios were plotted as a function of the inhibitor concentration (Fig 5A).
Drug transport assays were performed as previously described. Briefly, measurements of radiolabeled drug uptake were made over 1 h, unless otherwise specified. […] Where specified, one or more unlabeled drugs were also present at the indicated concentrations. […] The uptake assays were terminated by removing the oocytes from the reaction medium and washing them three times with 2 mL of ice-cold ND96 buffer. Each oocyte was transferred to a separate scintillation vial and lysed by the addition of 200 μL of a 5% SDS solution. The radioactivity in the sample was measured using a liquid scintillation analyser Tri-Carb 4910 TR (PerkinElmer). Water-injected oocytes were analyzed in parallel as a negative control. The buffer from each condition was measured in duplicate in parallel to each experiment to transform counts per minute into pmol of drug. Drug uptake attributable to PfCRT was determined by subtracting the background uptake from water-injected oocytes from that of PfCRT-expressing oocytes. In all cases, at least three independent experiments were performed on oocytes from different frogs, and for each condition in an experiment, measurements were made from 10 oocytes per treatment.
The following equations were adopted from Segel (1993), and the reader is referred to that text for the assumptions made in the author’s approach in the derivation of each equation [31]. The concentration of substrate is denoted as [S1] and the concentration of the inhibiting substrate is denoted as [S2]. KS1 and KS2 are the dissociation constants for the respective substrate-protein complexes.
Analyses of the kinetic data were performed using SigmaPlot version 13.0 and Python. The drug competition models were globally fit to the kinetic data using the least-squares method and ranked according to their corrected Akaike information criterion difference (ΔAICC) and their Akaike weight, using Python. The two top-ranked models were compared using an F-test.
This factor reflects how much the affinity of the transporter for one drug changes when the other drug is already bound in the protein cavity. In the former model, α > 0 and α ≠ 1. In the latter model, it could be thought of as if α = 1. Because of this, discriminating between the two models also means determining the value of α. In Mixed-type (Partial) inhibition, the apparent maximal velocity (Vmax,app) is given by Eq 22, Vmax,app=Vmax(1+β[S2]/αKS2)/(1+[S2]/αKS2) (Eq 22)
Vmax,app is the maximal rate of substrate transport at a certain inhibitor concentration. The half-maximal inhibitory concentration is given by the term in the denominator different from [S2], which in this case is αKS2. This means that by plotting Vmax,app as a function of [S2], the value of αKS2 can be derived after fitting the curve to Eq 23.
The half-maximal inhibitory concentration derived from this hyperbolic equation is equal to KS2. By plotting Vmax,app/KM,app as a function of [S2], one can derive KS2 after fitting the curve to Eq 25. The value of α can then be calculated dividing αKS2 by KS2.

**Q.** Which results are given for CCN(CC)CCCC(C)Nc1ccnc2cc(Cl)ccc12 (stereo not shown) [CQ, chloroquine]?
**A.** PfCRTDd2-mediated CQ transport 500 µM CQ (0 µM PPQ): 25.01 pmol oocyte-1 h-1 and 21.69 pmol oocyte-1 h-1 and 19.19 pmol oocyte-1 h-1 and 20.87 pmol oocyte-1 h-1; PfCRTDd2-mediated CQ transport 500 µM CQ (50 µM PPQ): 19.01 pmol oocyte-1 h-1 and 16.61 pmol oocyte-1 h-1 and 18.59 pmol oocyte-1 h-1; PfCRTDd2-mediated CQ transport 500 µM CQ (125 µM PPQ): 18.10 pmol oocyte-1 h-1 and 16.11 pmol oocyte-1 h-1 and 15.06 pmol oocyte-1 h-1; PfCRTDd2-mediated CQ transport 500 µM CQ (200 µM PPQ): 12.71 pmol oocyte-1 h-1 and 15.12 pmol oocyte-1 h-1 and 13.60 pmol oocyte-1 h-1; PfCRTDd2-mediated CQ transport 500 µM CQ (350 µM PPQ): 12.41 pmol oocyte-1 h-1 and 14.97 pmol oocyte-1 h-1 and 10.99 pmol oocyte-1 h-1; PfCRTDd2-mediated CQ transport 500 µM CQ (500 µM PPQ): 15.66 pmol oocyte-1 h-1 and 9.12 pmol oocyte-1 h-1 and 11.85 pmol oocyte-1 h-1; most plausible inhibition model (16 models, ΔAICC, Akaike weight, F-test, label = cold inhibitor of the other drug's transport): partial noncompetitive inhibition; Vmax, maximal velocity of drug transport (Mixed (Partial) model, drug as radiolabeled substrate): 33 ± 1 pmol oocyte^-1 h^-1; Kd (Mixed (Partial) model, drug as cold inhibitor, read-out: KS, dissociation constant for the PfCRT-substrate complex): 210 ± 80 µM; Kd (Mixed (Partial) model, drug as radiolabeled substrate, read-out: KS, dissociation constant for the PfCRT-substrate complex): 260 ± 25 µM; β, partiality factor (Mixed (Partial) model): 0.38 ± 0.06; α, KS interaction factor (Mixed (Partial) model, label = radiolabeled substrate, other drug cold inhibitor): 1.0 ± 0.2; Vmax, maximal velocity of drug transport (Noncompetitive (Partial) model, drug as radiolabeled substrate, other drug as cold inhibitor): 32 pmol oocyte^-1 h^-1 and 32 ± 1 pmol oocyte^-1 h^-1; Kd (Noncompetitive (Partial) model, drug as cold inhibitor, read-out: KS, dissociation constant for the PfCRT-substrate complex): 238 µM and 240 µM; Kd (Noncompetitive (Partial) model, drug as radiolabeled substrate, read-out: KS, dissociation constant for the PfCRT-substrate complex): 254 µM and 250 µM; β, partiality factor (Noncompetitive (Partial) model): 0.38 and 0.38 ± 0.04; KMapp ([3H]CQ + PPQ) ([PPQ] 0 µM): 257.93 µM; Vmaxapp ([3H]CQ + PPQ) ([PPQ] 0 µM): 32.70 pmol oocyte-1 h-1; Vmaxapp/KMapp ([3H]CQ + PPQ) ([PPQ] 0 µM): 0.1268 h⁻¹; KMapp ([3H]CQ + PPQ) ([PPQ] 50 µM): 250.37 µM; Vmaxapp ([3H]CQ + PPQ) ([PPQ] 50 µM): 27.98 pmol oocyte-1 h-1; Vmaxapp/KMapp ([3H]CQ + PPQ) ([PPQ] 50 µM): 0.1117 h⁻¹; KMapp ([3H]CQ + PPQ) ([PPQ] 125 µM): 258.31 µM; Vmaxapp ([3H]CQ + PPQ) ([PPQ] 125 µM): 25.60 pmol oocyte-1 h-1; Vmaxapp/KMapp ([3H]CQ + PPQ) ([PPQ] 125 µM): 0.0991 h⁻¹; KMapp ([3H]CQ + PPQ) ([PPQ] 200 µM): 254.40 µM; Vmaxapp ([3H]CQ + PPQ) ([PPQ] 200 µM): 21.83 pmol oocyte-1 h-1; Vmaxapp/KMapp ([3H]CQ + PPQ) ([PPQ] 200 µM): 0.0858 h⁻¹; KMapp ([3H]CQ + PPQ) ([PPQ] 350 µM): 250.34 µM; Vmaxapp ([3H]CQ + PPQ) ([PPQ] 350 µM): 19.75 pmol oocyte-1 h-1; Vmaxapp/KMapp ([3H]CQ + PPQ) ([PPQ] 350 µM): 0.0789 h⁻¹; KMapp ([3H]CQ + PPQ) ([PPQ] 500 µM): 247.83 µM; Vmaxapp ([3H]CQ + PPQ) ([PPQ] 500 µM): 17.90 pmol oocyte-1 h-1; Vmaxapp/KMapp ([3H]CQ + PPQ) ([PPQ] 500 µM): 0.0722 h⁻¹; β^CQ, partiality factor (fractional velocity plot, factor by which PPQ slows down CQ transport): 0.35 ± 0.06; Kd (secondary plot, half-maximum inhibitory concentration of Vmax,app versus inhibitor concentration, read-out: αKS, dissociation constant between the drug and the PfCRT complex with the other drug): 220 ± 85 µM; α (αKS divided by KS) (secondary plots, label = prebound drug): 1.0 ± 0.3

From paper PMC10281575, “PfCRT mutations conferring piperaquine resistance in falciparum malaria shape the kinetics of quinoline drug binding and transport” (PLOS Pathogens, 2023)
